Assays:
[1] = refractive index (Na D-line) (dimensionless); conditions: 101.33 kPa, Liquid, Standard Abbe refractometry
[2] = relative permittivity at zero frequency (dimensionless); conditions: 101.33 kPa, Liquid, Parallel plate capacitor
[3] = 101.33 kPa, Liquid, Vibrating tube method
[4] = refractive index (Na D-line) (dimensionless); xn = mol fraction of the nth substance listed; conditions: 101 kPa, Liquid, Standard Abbe refractometry
[5] = relative permittivity at zero frequency (dimensionless); xn = mol fraction of the nth substance listed; conditions: 101 kPa, Liquid, Parallel plate capacitor

CCCCCO [pentan-1-ol]
Conditions	mass density, [3] [kg/m3]	refractive index, [1]	relative permittivity at zero frequency, [2]
288.15 K	818.49	–	16.334
293.15 K	814.82	1.41001	15.736
298.15 K	811.19	1.4084	15.144
303.15 K	807.5	1.4065	14.565
308.15 K	803.86	–	13.998

CCCCCCCC [octane]
Conditions	mass density, [3] [kg/m3]	refractive index, [1]	relative permittivity at zero frequency, [2]
288.15 K	706.81	–	1.975
293.15 K	702.77	1.3991	1.968
298.15 K	698.73	1.3967	1.961
303.15 K	694.7	1.3945	1.954
308.15 K	690.67	–	1.947

CCCCCO [pentan-1-ol] + CCCCCCCC
Conditions	refractive index, 293.15 K	refractive index, 298.15 K	refractive index, 303.15 K	relative permittivity at zero frequency, 288.15 K	relative permittivity at zero frequency, 293.15 K	relative permittivity at zero frequency, 298.15 K	relative permittivity at zero frequency, 303.15 K	relative permittivity at zero frequency, 308.15 K
[4], x1 = 0.1008	1.3981	1.3965	1.3937	–	–	–	–	–
[4], x1 = 0.2034	1.3988	1.3973	1.3946	–	–	–	–	–
[4], x1 = 0.3004	1.3997	1.3982	1.3955	–	–	–	–	–
[4], x1 = 0.3808	1.4005	1.3991	1.3964	–	–	–	–	–
[4], x1 = 0.4885	1.4019	1.4004	1.3979	–	–	–	–	–
[4], x1 = 0.593	1.4033	1.4019	1.3993	–	–	–	–	–
[4], x1 = 0.6992	1.4047	1.4034	1.4008	–	–	–	–	–
[4], x1 = 0.7922	1.4063	1.405	1.4026	–	–	–	–	–
[4], x1 = 0.8967	1.4082	1.407	1.4046	–	–	–	–	–
[5], x1 = 0.1008	–	–	–	2.104	2.1	2.096	2.092	2.088
[5], x1 = 0.2034	–	–	–	2.331	2.321	2.312	2.304	2.297
[5], x1 = 0.3004	–	–	–	2.766	2.731	2.699	2.669	2.643
[5], x1 = 0.3808	–	–	–	3.405	3.32	3.243	3.173	3.111
[5], x1 = 0.4885	–	–	–	4.798	4.601	4.421	4.257	4.109
[5], x1 = 0.593	–	–	–	6.675	6.358	6.053	5.774	5.516
[5], x1 = 0.6992	–	–	–	8.743	8.332	7.936	7.559	7.204
[5], x1 = 0.7922	–	–	–	11.143	10.654	10.175	9.712	9.267
[5], x1 = 0.8967	–	–	–	13.734	13.179	12.634	12.103	11.585

Source: the NIST ThermoML archive (doi:10.1016/j.tca.2012.05.036)
